# Experiments:
# Format in all cases: in vivo
# [1] = system: MRL/Ipr dry eye mice; assay: Comparative tear production, CP-690550 versus Restasis, in MRL/Ipr dry eye mice (phenol red thread); conditions: CP-690550 0.01% vs Restasis (cyclosporine 0.05%), 2 μl twice a day for 30 days; FIG. 3
# Procedure: Tear measurement was done using phenol red impregnated thread (Quick Zone®) and baseline measurement was performed before each drug application. Drugs or vehicles were applied at 2 μl, two times a day.
# Vehicle-treated normal C57black/6 and MRL/Ipr dry eye mice were used as normal control and dry eye control, respectively.
# Control animals included normal C57Black/6 mice, and MRL/Ipr mice, treated with PBS vehicle and MRL/Ipr mice treated with Refresh Endura® (vehicle for Restasis) (5-10 mice/group).
# [2] = system: MRL/Ipr dry eye mice; assay: Dose response of CP690550 on tear production in MRL/Ipr mice (Formulations 1, 3 and 4); conditions: at 2 days after treatment, all comparisons, FIGS. 4-6
# Procedure: As with Example 4 above, vehicle-treated normal C57black/6 and MRL/Ipr dry eye mice (5-10 mice/group) were used as normal control and dry eye control, respectively. […] Treatment for Formulation 1 was carried for two weeks, at […], twice a day.
# [3] = system: dry-induced C57 mice; assay: Induced dry eye mouse model (scopolamine plus fans), tear production; conditions: at 2 days of treatment; 1 μl once a day, Formulations 3 and 5; FIGS. 7 and 8
# Procedure: An injection was prepared comprising 2.5 mg/ml scopolamine (sigma) in injectable saline (1-1.5 ml per animal). In normal C57 mice (200-250) ul of scopolamine was injected four times every 2.5 hrs in alternating hind quarters. The mice were placed in special cages (with holes in front and back) and placed in a hood. Fans were placed in front of each cage, and turned on for 16 hours over night for five days. Measurements were taken daily.
# As with Examples 4 and 5 above, animals were treated with drug or vehicle at 1 μl, once a day for 2 weeks.
smiles,measurement,setting,value
"C[C@@H]1CCN(C(=O)CC#N)C[C@@H]1N(C)c1ncnc2[nH]ccc12 [CP690550, 3-{(3R,4R)-4-Methyl-3-[methyl-(7H-pyrrolo[2,3-d]pyrimidin-4-yl)-amino]-piperidin-1-yl}-3-oxo-propionitrile]",response rate as compared to Restasis,[1],much faster response rate as compared to Restasis®
same,volume of tear production compared with Restasis,[1],significant improvement in the volume of tear production over Restasis®
same,improvement in tear production,[2],significant improvement in tear production
same,increase in tear production,[3],significant increase in tear production

# Reference: patent US20130303557A1, “PHARMACEUTICAL COMPOSITIONS AND METHODS OF TREATING DRY EYE DISORDERS” (PFIZER INC., priority 2010, published 2013)
